ChEMBL document CHEMBL1156289, “Potent and selective inhibition of human cytochrome P450 3A4 by seco-pancratistatin structural analogs” (Bioorg Med Chem Lett, 2010)
pKi: −log10 of the molar value. Calls of active or inactive are those of the source. The calls are words filed in the database; no cut-off is given here.

Legend:
Cytochrome P450 3A4 [1] = target: T1, Cytochrome P450 3A4 (Homo sapiens, UniProt P08684); experiment: Inhibition of human recombinant CYP3A4 assessed as biotransformation of […] measured every minute for 15 mins by fluorescence intensity assay; type: ADME
T1 sequence (P08684 whole entry): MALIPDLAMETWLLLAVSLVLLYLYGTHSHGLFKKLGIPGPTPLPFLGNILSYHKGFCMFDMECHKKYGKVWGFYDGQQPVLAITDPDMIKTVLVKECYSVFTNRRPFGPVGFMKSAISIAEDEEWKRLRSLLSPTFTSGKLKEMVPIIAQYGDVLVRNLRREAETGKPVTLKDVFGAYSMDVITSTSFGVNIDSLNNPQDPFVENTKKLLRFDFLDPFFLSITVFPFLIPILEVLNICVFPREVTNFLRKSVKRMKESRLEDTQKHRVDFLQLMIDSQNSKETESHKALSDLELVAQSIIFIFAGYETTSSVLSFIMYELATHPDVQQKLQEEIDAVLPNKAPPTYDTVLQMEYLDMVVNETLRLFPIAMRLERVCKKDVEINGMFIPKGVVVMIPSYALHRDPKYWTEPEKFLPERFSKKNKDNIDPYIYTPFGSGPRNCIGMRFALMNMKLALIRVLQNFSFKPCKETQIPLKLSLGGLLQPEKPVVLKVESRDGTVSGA

MCF7 = experiment: Cytotoxicity against human MCF7 cells at 10 uM; type: functional, cell-based
Cytochrome P450 3A4 [2] = target: T1, Cytochrome P450 3A4; experiment: Inhibition of human recombinant CYP3A4 assessed as biotransformation of […] at 10 uM measured every minute for 15 mins by fluorescence intensity assay; type: ADME

Compound | pKi (Cytochrome P450 3A4 [1]) | Activity (MCF7) | Ki (Cytochrome P450 3A4 [2])
COCO[C@H]([C@@H]1OC(C)(C)O[C@H]1CO[Si](C)(C)C(C)(C)C)[C@H](CNC(=O)OC(C)(C)C)c1ccc2c(c1)OCO2 | 6.62 | inactive | –
COCO[C@@H]([C@@H]1OC(C)(C)O[C@H]1CO[Si](c1ccccc1)(c1ccccc1)C(C)(C)C)[C@@H](CNC(=O)c1ccccc1)c1ccc2c(c1)OCO2 | – | inactive | –
COCO[C@@H]([C@@H]1OC(C)(C)O[C@H]1COS(=O)(=O)c1ccc(C)cc1)[C@@H](CNC(=O)c1ccccc1)c1ccc2c(c1)OCO2 | – | inactive | –
COCO[C@H]([C@@H]1OC(C)(C)O[C@H]1CO)[C@H](CNC(=O)c1ccccc1)c1ccc2c(c1)OCO2 | 5.75 | inactive | –
COCO[C@H]([C@@H]1OC(C)(C)O[C@H]1CO[Si](C)(C)C(C)(C)C)[C@H](CN=[N+]=[N-])c1ccc2c(c1)OCO2 | – | inactive | Not Active
COCO[C@H]([C@@H]1OC(C)(C)O[C@H]1COS(=O)(=O)c1ccc(C)cc1)[C@H](CNC(=O)c1ccccc1)c1ccc2c(c1)OCO2 | 7.15 | inactive | –
CC(C)OC(=O)[C@H](c1ccc2c(c1)OCO2)[C@H](O)[C@@H]1OC(C)(C)O[C@H]1CO[Si](C)(C)C(C)(C)C | – | – | Not Active
O=C(NC[C@@H](c1ccc2c(c1)OCO2)[C@@H](O)[C@H](O)[C@@H](O)CO)c1ccccc1 | – | inactive | –
CC1(C)O[C@@H]([C@H](O)[C@@H](CNC(=O)c2ccccc2)c2ccc3c(c2)OCO3)[C@H](CO)O1 | – | inactive | –
COCO[C@@H]([C@@H]1OC(C)(C)O[C@H]1CO[Si](C)(C)C(C)(C)C)[C@@H](CNC(=O)OC(C)(C)C)c1ccc2c(c1)OCO2 | – | inactive | –
COCO[C@H]([C@@H]1OC(C)(C)O[C@H]1CO[Si](C)(C)C(C)(C)C)[C@H](CNC(=O)c1ccccc1)c1ccc2c(c1)OCO2 | 7.52 | inactive | –
COCO[C@@H]([C@@H]1OC(C)(C)O[C@H]1CO)[C@@H](CNC(=O)c1ccccc1)c1ccc2c(c1)OCO2 | – | inactive | –
COCO[C@@H]([C@@H]1OC(C)(C)O[C@H]1CO[Si](C)(C)C(C)(C)C)[C@@H](CNC(=O)c1ccccc1)c1ccc2c(c1)OCO2 | – | inactive | –
O=C(NC[C@H](c1ccc2c(c1)OCO2)[C@H](O)[C@H](O)[C@@H](O)CO)c1ccccc1 | – | inactive | –
COCO[C@@H]([C@@H]1OC(C)(C)O[C@H]1COC(C)=O)[C@@H](CNC(=O)c1ccccc1)c1ccc2c(c1)OCO2 | – | inactive | –
COCO[C@H]([C@@H]1OC(C)(C)O[C@H]1CO[Si](C)(C)C(C)(C)C)[C@H](CO)c1ccc2c(c1)OCO2 | – | – | Not Active
CC1(C)O[C@@H]([C@H](O)[C@@H](CNC(=O)c2ccccc2)c2ccc3c(c2)OCO3)[C@H](CO[Si](C)(C)C(C)(C)C)O1 | – | inactive | –
